According to patent US20110190227A1, “Antagonists of Prostaglandin D2 Receptors” (Amira Pharmaceuticals, Inc., priority 2008, published 2011):

Columns and labels:
human DP2 receptor = target: T1, human DP2 receptor (Homo sapiens, UniProt Q9Y5Y4); experiment: DP2/CRTH2 radioligand binding assay ([3H]PGD2); conditions: membranes of HEK293 cells expressing recombinant human DP2, 1 nM [3H]PGD2; read-out: hDP2
T1 construct: expressed in transfected cells
T1 sequence (Q9Y5Y4 1-395): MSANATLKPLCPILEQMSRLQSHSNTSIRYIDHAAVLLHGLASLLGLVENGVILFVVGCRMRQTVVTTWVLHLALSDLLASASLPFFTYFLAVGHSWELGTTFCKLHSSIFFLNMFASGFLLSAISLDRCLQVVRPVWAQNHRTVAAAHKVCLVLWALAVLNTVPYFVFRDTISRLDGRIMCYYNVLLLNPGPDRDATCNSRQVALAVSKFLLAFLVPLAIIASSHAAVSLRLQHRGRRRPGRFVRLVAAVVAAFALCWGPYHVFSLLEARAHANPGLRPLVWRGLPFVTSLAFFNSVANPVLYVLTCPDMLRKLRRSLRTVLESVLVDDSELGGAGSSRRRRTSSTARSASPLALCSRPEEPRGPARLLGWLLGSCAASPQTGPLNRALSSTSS
Experimental: The ability of a compound to bind to the human DP2 receptor is assessed via a radioligand binding assay using [^3H]PGD2. HEK293 cells stably expressing recombinant human DP2 are resuspended in 10 mM Hepes, 7.4 containing 1 mM DTT, lysed and centrifuged at 75,000×g to pellet the membranes. The membranes are resuspended in 10 mM Hepes, 7.4 containing 1 mM DTF and 10% glycerol to approximately 5 mg protein/ml. Membranes (2-10 […]) are incubated in 96-well plates with 1 nM [^3H]PGD2 and test compound in Assay Buffer (50 mM Hepes, 10 mM MnCl2, 1 mM EDTA, plus or minus 0.2% human serum albumin, pH 7.4) for 60 minutes at room temperature. The reactions are terminated by rapid filtration through Whatman GF/C glass fibre filter plates. The filter plates were pre-soaked in 0.33% polythylenimine for 30 minutes at room temperature then washed in Wash Buffer (50 mM Hepes, 0.5 M NaCl pH 7.4) prior to harvesting. After harvesting, the filter plates are washed 3 times with 1 ml cold Wash Buffer then dried. Scintillant is then added to the plates and the radioactivity retained on the filters is determined on a Packard TopCount (Perkin Elmer). Specific binding is determined as total radioactive binding minus non-specific binding in the presence of 10 μM PGD2. IC50s were determined using GraphPad prism analysis of drug titration curves.

human DP1 receptor = target: T2, human DP1 receptor (Homo sapiens, UniProt Q13258); experiment: DP1 radioligand membrane binding assay ([3H]BWA868C); conditions: human platelet membranes, 2 nM [3H]BWA868C; read-out: hDP1
T2 construct: tissue Biological Specialty Corporation; host or cells: human platelets, membrane preparation
T2 sequence (Q13258 1-359): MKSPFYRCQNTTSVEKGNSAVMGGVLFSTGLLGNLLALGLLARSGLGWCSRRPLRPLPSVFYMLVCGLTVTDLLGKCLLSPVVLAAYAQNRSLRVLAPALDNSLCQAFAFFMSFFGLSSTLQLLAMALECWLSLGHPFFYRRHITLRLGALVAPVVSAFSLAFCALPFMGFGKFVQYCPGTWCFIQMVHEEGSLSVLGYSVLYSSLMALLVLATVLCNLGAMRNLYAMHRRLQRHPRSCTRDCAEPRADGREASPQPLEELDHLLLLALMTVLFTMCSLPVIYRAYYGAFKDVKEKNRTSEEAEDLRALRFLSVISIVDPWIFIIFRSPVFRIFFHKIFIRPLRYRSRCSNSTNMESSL
Experimental: The ability of a compound to bind to the human DP1 receptor was evaluated via a radioligand membrane binding assay using the DP1 selective synthetic ligand [^3H]BWA868C. Packed human platelets (Biological Specialty Corporation), were resuspended in 6 volumes of Hepes/HBSS buffer (10 mM Hepes, 1 mM DTT in Hanks Balanced Salt Solution (HBSS), lysed and centrifuged at 75,000×g to pellet the membranes. Membranes were resuspended in Hepes/HBSS buffer to approximately 12 mg protein/ml. Membranes (20 μg protein/well) are incubated in 96-well plates with 2 nM [^3H]BWA868C and test compound in Assay Buffer (50 mM Hepes, 10 mM MnCl2, 1 mM EDTA, plus or minus 0.2% human serum albumin, pH 7.4) for 60 minutes at room temperature. The reactions are terminated by rapid filtration through Whatman GF/C glass fibre filter plates. The filter plates were pre-soaked in 0.33% polyethylenimine for 30 minutes at room temperature then washed in Wash Buffer (50 mM Hepes, 0.5 M NaCl pH 7.4) prior to harvesting. After harvesting, the filter plates are washed 3 times with 1 ml cold Wash Buffer then dried. Scintillant is then added to the plates and the radioactivity retained on the filters is determined on a Packard TopCount (Perkin Elmer). Specific binding is determined as total radioactive binding minus non-specific binding in the presence of 10 μM BW A868C. IC50s were determined using GraphPad prism analysis of drug titration curves.

SMILES | IC50 (human DP2 receptor) [nM] | IC50 (human DP1 receptor) [nM]
COc1ccc(CC(=O)O)cc1Oc1ccc(C(F)(F)F)cc1C[S+]([O-])CCc1ccccc1 (stereo not shown) [Compound 1-8, {4-Methoxy-3-[2-(2-phenyl-ethanesulfinylmethyl)-4-trifluoromethyl-phenoxy]-phenyl}-acetic acid] | < 300 | > 1000
O=C(O)Cc1cccc(Oc2ccc(Br)cc2C[S+]([O-])c2ccc3ccccc3n2)c1 (stereo not shown) [Compound 1-32, {3-[4-Bromo-2-(quinoline-2-sulfinylmethyl)-phenoxy]-phenyl}-acetic acid] | < 300 | > 1000
COc1ccc(CC(=O)O)cc1Oc1ccc(C(F)(F)F)cc1CS(=O)(=O)C(C)(C)C [Compound 1-6, {4-Methoxy-3-[2-(2-methyl-propane-2-sulfonylmethyl)-4-trifluoromethyl-phenoxy]-phenyl}-acetic acid] | > 1000 | > 1000
CN(C)CC[S+]([O-])Cc1cc(Br)ccc1Oc1cccc(CC(=O)O)c1 (stereo not shown) [Compound 1-35, {3-[4-Bromo-2-(2-dimethylamino-ethanesulfinylmethyl)-phenoxy]-phenyl}-acetic acid] | > 1000 | > 1000
O=C(O)Cc1cccc(Oc2ccc(Br)cc2CS(=O)(=O)CCc2ccccc2)c1 [Compound 1-22, {3-[4-Bromo-2-(2-phenyl-ethanesulfonylmethyl)-phenoxy]-phenyl}-acetic acid] | < 300 | > 1000
O=C(O)Cc1cccc(Oc2ccc(Br)cc2C[S+]([O-])c2ccccn2)c1 (stereo not shown) [Compound 1-31, {3-[4-Bromo-2-(pyridine-2-sulfinylmethyl)-phenoxy]-phenyl}-acetic acid] | > 1000 | > 1000
O=C(O)Cc1cccc(Oc2ccc(Br)cc2CSc2ccc3ccccc3n2)c1 [Compound 1-16, {3-[4-Bromo-2-(quinolin-2-ylsulfanylmethyl)-phenoxy]-phenyl}-acetic acid] | 300 to 1000 | 300 to 1000
COc1ccc(CC(=O)O)cc1Oc1ccc(Cl)cc1CSCc1ccccc1 [Compound 1-54, [3-(2-Benzylsulfanylmethyl-4-chloro-phenoxy)-4-methoxy-phenyl]-acetic acid] | < 300 | 300 to 1000
COc1ccc(CC(=O)O)cc1Oc1ccc(C(=O)c2ccccc2)cc1CSC(C)C [Compound 1-83, [3-(4-Benzoyl-2-isopropylsulfanylmethyl-phenoxy)-4-methoxy-phenyl]-acetic acid] | < 300 | –
O=C(O)Cc1cccc(Oc2ccc(Br)cc2CSc2nccs2)c1 [Compound 1-14, {3-[4-Bromo-2-(thiazol-2-ylsulfanylmethyl)-phenoxy]-phenyl}-acetic acid] | < 300 | 300 to 1000
COc1ccc(CC(=O)O)cc1Oc1ccc(NS(=O)(=O)c2cccc3c(N(C)C)cccc23)cc1CSC(C)(C)C [Compound 1-119, {3-[2-tert-Butylsulfanylmethyl-4-(5-dimethylamino-naphthalene-1-sulfonylamino)-phenoxy]-4-methoxy-phenyl}-acetic acid] | < 300 | –
O=C(O)Cc1cccc(Oc2ccc(Br)cc2COc2ccccc2)c1 [Compound 1-37, [3-(4-Bromo-2-phenoxymethyl-phenoxy)-phenyl]-acetic acid] | > 1000 | 300 to 1000
COc1ccc(CC(=O)O)cc1Oc1ccc(C(F)(F)F)cc1CS(=O)(=O)c1ccccc1 [Compound 1-7, [3-(2-Benzenesulfonylmethyl-4-trifluoromethyl-phenoxy)-4-methoxy-phenyl]-acetic acid] | 300 to 1000 | > 1000
CN(C)CCSCc1cc(Br)ccc1Oc1cccc(CC(=O)O)c1 [Compound 1-18, {3-[4-Bromo-2-(2-dimethylamino-ethylsulfanylmethyl)-phenoxy]-phenyl}-acetic acid] | > 1000 | > 1000
Cn1cc(-c2ccc(Oc3cccc(CC(=O)O)c3)c(CSc3ccccc3)c2)cn1 [Compound 1-57, {3-[4-(1-Methyl-1H-pyrazol-4-yl)-2-phenylsulfanylmethyl-phenoxy]-phenyl}-acetic acid] | 300 to 1000 | > 1000
COc1ccc(CC(=O)O)cc1Oc1ccc(Cl)cc1C[S+]([O-])Cc1ccccc1 (stereo not shown) [Compound 1-55, [3-(4-Chloro-2-phenylmethanesulfinylmethyl-phenoxy)-4-methoxyphenyl]-acetic acid] | 300 to 1000 | > 1000
O=C(O)Cc1cccc(Oc2ccc(Br)cc2CSc2ccccc2)c1 [Compound 1-11, [3-(4-Bromo-2-phenylsulfanylmethyl-phenoxy)-phenyl]-acetic acid] | < 300 | 300 to 1000
O=C(O)Cc1cccc(Oc2ccc(Br)cc2CSCCc2ccccc2)c1 [Compound 1-13, [3-(4-Bromo-2-phenethylsulfanylmethyl-phenoxy)-phenyl]-acetic acid] | < 300 | < 300
COc1ccc(CC(=O)O)cc1Oc1ccc(-c2cnn(C)c2)cc1CSC(C)C [Compound 1-63, {3-[2-Isopropylsulfanylmethyl-4-(1-methyl-1H-pyrazol-4-yl)-phenoxy]-4-methoxy-phenyl}-acetic acid] | < 300 | –
O=C(O)Cc1cccc(Oc2ccc(Br)cc2C[S+]([O-])CCc2ccccc2)c1 (stereo not shown) [Compound 1-30, {3-[4-Bromo-2-(2-phenyl-ethanesulfinylmethyl)-phenoxy]-phenyl}-acetic acid] | < 300 | > 1000
COc1ccc(CC(=O)O)cc1Oc1ccc(C(F)(F)F)cc1CSC(C)(C)C [Compound 1-3, [3-(2-tert-Butylsulfanylmethyl-4-trifluoromethyl-phenoxy)-4-methoxy-phenyl]-acetic acid] | 300 to 1000 | > 1000
COc1ccc(CC(=O)O)cc1Oc1ccc(C(F)(F)F)cc1CS(=O)(=O)CCc1ccccc1 [Compound 1-5, {4-Methoxy-3-[2-(2-phenyl-ethanesulfonylmethyl)-4-trifluoromethyl-phenoxy]-phenyl}-acetic acid] | < 300 | > 1000
O=C(O)Cc1cccc(Oc2ccc(Br)cc2CS(=O)(=O)c2nccs2)c1 [Compound 1-25, {3-[4-Bromo-2-(thiazole-2-sulfonylmethyl)-phenoxy]-phenyl}-acetic acid] | 300 to 1000 | > 1000
COc1ccc(CC(=O)O)cc1Oc1ccc(NC(=O)C(C)(C)C)cc1COc1ccccc1 [Compound 1-118, {3-[4-(2,2-Dimethyl-propionylamino)-2-phenoxymethyl-phenoxy]-4-methoxy-phenyl}-acetic acid] | 300 to 1000 | –
COc1ccc(CC(=O)O)cc1Cc1ccc(NC(=O)C(C)(C)C)cc1CSC(C)(C)C [Compound 1-107, {3-[2-tert-Butylsulfanylmethyl-4-(2,2-dimethyl-propionylamino)-benzyl]-4-methoxy-phenyl}-acetic acid] | < 300 | –
COc1ccc(CC(=O)O)cc1Oc1ccc(-c2cnn(C)c2)cc1CS(=O)(=O)C(C)C [Compound 1-64, {4-Methoxy-3-[4-(1-methyl-1H-pyrazol-4-yl)-2-(propane-2-sulfonylmethyl)-phenoxy]-phenyl}-acetic acid] | 300 to 1000 | –
